Experimental data from PubChem BioAssay AID330 (DTP/NCI, 2004).
Several values for one entry are separate records, joined by “and”; a condition that tells them apart may be missing. Equal entries are not always repeated. Toxic doses and inconclusive results are not listed.

System: P388 leukemia ip, CD2F1 mice, survival T/C
Assay: NCI In Vivo Anticancer Drug Screen. Data for tumor model P388 Leukemia (intraperitoneal) in CD2F1 (CDF1) mice
Details: endpoint: median survival time, higher = longer survival
Summary of the method: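 Mice carrying the transplanted tumor received test compound or vehicle. Survival was recorded in each group, and the value is the treated-group measurement divided by that of the vehicle-treated control group.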

[1] = dose: 50.0 mg/kg/injection, schedule: Q01DX009 (ip), vehicle: saline
[2] = dose: 100.0 mg/kg/injection, schedule: Q01DX009 (ip), vehicle: saline

For `CCN(C(=O)COc1ccc(Cl)cc1Cl)c1ccccc1C`, the T/C (dose: 100.0 mg/kg/injection, schedule: Q04DX003 (ip), vehicle: saline with Tween-80) was 100 % of control, the T/C (dose: 200.0 mg/kg/injection, schedule: Q04DX003 (ip), vehicle: saline with Tween-80) was 100 % of control and the T/C (dose: 400.0 mg/kg/injection, schedule: Q04DX003 (ip), vehicle: saline with Tween-80) was 100 % of control.

For `CN(CN(C)N=Nc1ccc(Br)cc1)CN(C)N=Nc1ccc(Br)cc1`, the T/C (dose: 60.0 mg/kg/injection, schedule: Q01DX005 (ip), vehicle: Klucel (hydroxypropylcellulose) (HPC)) was 100 % of control and the T/C (dose: 120.0 mg/kg/injection, schedule: Q01DX005 (ip), vehicle: Klucel (hydroxypropylcellulose) (HPC)) was 92 % of control.

For `CS(=O)(=O)O/C=C1/CCOC1=O`, the T/C (dose: 3.13 mg/kg/injection, schedule: Q01DX009 (ip), vehicle: water) was 107 % of control, the T/C (dose: 6.25 mg/kg/injection, schedule: Q01DX009 (ip), vehicle: water) was 104 % of control and the T/C (dose: 12.5 mg/kg/injection, schedule: Q01DX009 (ip), vehicle: water) was 102 % of control and 108 % of control. For the same compound, the T/C (dose: 25.0 mg/kg/injection, schedule: Q01DX009 (ip), vehicle: water) was 120 % of control.

`CC(C)C1NC(C(C)C)N2C(C(C)C)N12` (stereo not drawn) was tested, and the T/C (dose: 100.0 mg/kg/injection, schedule: Q01DX001 (ip), vehicle: Klucel (hydroxypropylcellulose) (HPC)) was 100 % of control, the T/C (dose: 200.0 mg/kg/injection, schedule: Q01DX001 (ip), vehicle: Klucel (hydroxypropylcellulose) (HPC)) was 100 % of control and the T/C (dose: 400.0 mg/kg/injection, schedule: Q01DX001 (ip), vehicle: Klucel (hydroxypropylcellulose) (HPC)) was 106 % of control.

With `O=c1ncc(F)cn1C1OC(CO)C(O)C1O` (stereo not drawn) the T/C (dose: 1.5 mg/kg/injection, schedule: Q01DX009 (ip), vehicle: Klucel (hydroxypropylcellulose) (HPC)) was 106 % of control, the T/C (dose: 3.0 mg/kg/injection, schedule: Q01DX009 (ip), vehicle: Klucel (hydroxypropylcellulose) (HPC)) was 87 % of control and the T/C (dose: 6.0 mg/kg/injection, schedule: Q01DX009 (ip), vehicle: Klucel (hydroxypropylcellulose) (HPC)) was 86 % of control.

With `COc1cc(-c2[o+]c3cc(O)cc(O)c3cc2OC2OC(CO)C(O)C(O)C2O)cc(OC)c1O` (stereo not drawn) the T/C (dose: 25.0 mg/kg/injection, schedule: Q01DX009 (ip), vehicle: saline sonified) was 100 % of control, the T/C (dose: 50.0 mg/kg/injection, schedule: Q01DX009 (ip), vehicle: saline sonified) was 100 % of control and the T/C (dose: 100.0 mg/kg/injection, schedule: Q01DX009 (ip), vehicle: saline sonified) was 100 % of control.

In the case of `Cn1nccc1N`, the T/C (dose: 25.0 mg/kg/injection, schedule: Q01DX009 (ip), vehicle: saline) is reported as 117 % of control and the T/C [1] is reported as 108 % of control.

In the case of `[Cl][Pt][Cl].[NH-]C(CO)C(=O)O` (stereo not drawn), the T/C (dose: 6.25 mg/kg/injection, schedule: Q01DX005 (ip), vehicle: water) is reported as 119 % of control, the T/C (dose: 12.5 mg/kg/injection, schedule: Q01DX005 (ip), vehicle: water) is reported as 113 % of control and the T/C (dose: 25.0 mg/kg/injection, schedule: Q01DX005 (ip), vehicle: water) is reported as 122 % of control. For the same compound, the T/C (dose: 50.0 mg/kg/injection, schedule: Q01DX005 (ip), vehicle: water) was 153 % of control.

In the case of `CC1(C)CC(=O)C(C(=O)c2ccccc2)=[N+]1[O-]`, the T/C (dose: 50.0 mg/kg/injection, schedule: Q01DX005 (ip), vehicle: Klucel (hydroxypropylcellulose) (HPC)) is reported as 97 % of control, the T/C (dose: 100.0 mg/kg/injection, schedule: Q01DX005 (ip), vehicle: Klucel (hydroxypropylcellulose) (HPC)) is reported as 100 % of control and the T/C (dose: 200.0 mg/kg/injection, schedule: Q01DX005 (ip), vehicle: Klucel (hydroxypropylcellulose) (HPC)) is reported as 99 % of control.

In the case of `CN1CCC(/C=C/c2cccc3ccccc23)CN1` (stereo not drawn) (tested in a mixture with another compound), the T/C [1] is reported as 108 % of control and the T/C [2] is reported as 99 % of control.

With `CCCCc1c(O)c(N=NC(=N)N)c2ccccc2c1O` the T/C (dose: 50.0 mg/kg/injection, schedule: Q01DX005 (ip), vehicle: saline with Tween-80) was 100 % of control, the T/C (dose: 100.0 mg/kg/injection, schedule: Q01DX005 (ip), vehicle: saline with Tween-80) was 101 % of control and the T/C (dose: 200.0 mg/kg/injection, schedule: Q01DX005 (ip), vehicle: saline with Tween-80) was 99 % of control.

For `O=C(COc1ccccc1)NC(=S)Nc1nccs1`, the T/C (dose: 60.0 mg/kg/injection, schedule: Q01DX005 (ip), vehicle: saline with Tween-80) was 96 % of control, the T/C (dose: 120.0 mg/kg/injection, schedule: Q01DX005 (ip), vehicle: saline with Tween-80) was 93 % of control and the T/C (dose: 240.0 mg/kg/injection, schedule: Q01DX005 (ip), vehicle: saline with Tween-80) was 102 % of control.

With `O[P+]1(c2ccccc2)OC(C(F)(F)F)(C(F)(F)F)C(C(F)(F)F)(C(F)(F)F)O1` the T/C [1] was 108 % of control, the T/C [2] was 99 % of control and the T/C (dose: 200.0 mg/kg/injection, schedule: Q01DX009 (ip), vehicle: saline) was 107 % of control.
